Consider four compounds from patent publication US8283106B2, “Sulfonic acid salt and derivative thereof, photoacid generator agent, and resist material and pattern formation method using the photoacid generator agent” (Central Glass Company, Limited, priority 2007, dated 2012).

Read-outs that look alike come from different tables or passages of the source.

Series [1] can be described thus: Resist solvent solubility. The format is physicochemical. As to the method: Using propylene glycol monomethyl ether acetate (PGMEA) as a resist solvent, the solubility of PAG 1 to PAG 6 in the resist solvent was measured.
The nature of series [2]: Resist compatibility of acid generator with base resin in resist composition. The format is physicochemical. The conditions noted are these: for Compatibility: acid generator (1.0), PGMEA (400). On the procedure:
Resist compositions were prepared using the above sulfonic acid onium salts PAG 1 and PAG 2 as acid generators and the following polymers (Resin 1 to 5) as base resins. Resist solutions were obtained by filtering the resist compositions with […] membrane filters, respectively.
Each of the obtained resist solutions was spin-coated on a silicon wafer to form a resist film of 250 nm thickness. The resist film was prebaked at 110° C., exposed to a 248-nm ultraviolet ray through a photomask, and then, subjected to post exposure baking treatment at 120° C. After that, the resist film was developed with a […] aqueous tetramethylammonium hydroxide solution for 1 minute at 23° C.
For comparison purposes, the above sulfonic acid onium salts PAG 3, PAG 4 and PAG 7 were tested for the resist compatibility and resist resolution under the same conditions as to the above working examples.

`O=C(OCC(F)(F)S(=O)(=O)O)C12CC3CC(CC(C3)C1)C2` [PAG 6, triphenylsulfonium 2-(1′-adamantane)carbonyloxy-1,1-difluoroethanesulfonate]: in series [1], the Solubility is recorded as 0.2 parts by weight of PAG dissolved in 100 parts by weigh of PGMEA.
As to `O=C(NC12CC3CC(CC(C3)C1)C2)OCC(F)(F)S(=O)(=O)O` [PAG 2, triphenylsulfonium adamantane-1-yl-carbamic acid-2,2-difluoroethylsulfonate], the “resist solvent solubility relative to urethane bond-free sulfonic acid onium salts (PAG 3 to PAG 6)” value in series [1] (PGMEA) is listed as “twice or more higher”. For the same compound, the Solubility in series [1] (resist solvent propylene glycol monomethyl ether acetate (PGMEA)) is 0.7 parts by weight of PAG dissolved in 100 parts by weigh of PGMEA. The Compatibility result in series [2] (Resin 1 (40 pts. wt.)), in series [2] (Resin 2 (40 pts. wt.)), in series [2] (Resin 3 (40 pts. wt.)), in series [2] (Resin 4 (40 pts. wt.)) and in series [2] (Resin 5 (40 pts. wt.)) was “Good” throughout. The “resist compatibility compared with the conventional salts” value in series [2] (summary of TABLES 2 and 3) is reported as “higher resist compatibility”.
“triphenylsulfonium cyclohexyloxycarbonyldifluoromethanesulfonate [PAG 3]”: the Solubility in series [1] was 0.4 parts by weight of PAG dissolved in 100 parts by weigh of PGMEA. Besides, the Compatibility result in series [2] (Resin 1 (40 pts. wt.)), in series [2] (Resin 2 (40 pts. wt.)), in series [2] (Resin 3 (40 pts. wt.)), in series [2] (Resin 4 (40 pts. wt.)) and in series [2] (Resin 5 (40 pts. wt.)) was “Slightly poor” throughout.
Consider `O=C(OCC12CC3CC(CC(C3)C1)C2)C(F)(F)S(=O)(=O)O` [PAG 4, triphenylsulfonium (adamantane-1-yl-methyl)oxycarbonyldifluoromethanesulfonate], for which the Solubility in series [1] is 0.3 parts by weight of PAG dissolved in 100 parts by weigh of PGMEA. Further, the Compatibility entry in series [2] (Resin 1 (40 pts. wt.)), in series [2] (Resin 2 (40 pts. wt.)), in series [2] (Resin 3 (40 pts. wt.)), in series [2] (Resin 4 (40 pts. wt.)) and in series [2] (Resin 5 (40 pts. wt.)) was “Good” each time.
